Measurements: patent publication US20070173492A1, “1,2-Diaza-dibenzo[e,h]azulenes for the treatment of central nervous system diseases and disorders” (Pliva-Istrazivacki Institut d.o.o., priority 2003, published 2007)
pIC50, pKi: −log10 of the molar value.

How the values were obtained:
5-HT2A receptor = target: T1, 5-HT2A receptor (Homo sapiens, UniProt P28223); assay: radioligand binding assay for 5-HT2A receptor ([3H]-ketanserin); settings: human cortex or recombinant 5-HT2A receptor expressed in CHO-K1 cells; for pIC50: read-out: binding affinity to 5-HT2A serotonin receptor expressed as IC50 value; for pKi: read-out: binding affinity to 5-HT2A serotonin receptor, Ki value
T1 construct: expressed in transfected cells; alternatively human cortex tissue
T1 sequence (P28223 whole entry): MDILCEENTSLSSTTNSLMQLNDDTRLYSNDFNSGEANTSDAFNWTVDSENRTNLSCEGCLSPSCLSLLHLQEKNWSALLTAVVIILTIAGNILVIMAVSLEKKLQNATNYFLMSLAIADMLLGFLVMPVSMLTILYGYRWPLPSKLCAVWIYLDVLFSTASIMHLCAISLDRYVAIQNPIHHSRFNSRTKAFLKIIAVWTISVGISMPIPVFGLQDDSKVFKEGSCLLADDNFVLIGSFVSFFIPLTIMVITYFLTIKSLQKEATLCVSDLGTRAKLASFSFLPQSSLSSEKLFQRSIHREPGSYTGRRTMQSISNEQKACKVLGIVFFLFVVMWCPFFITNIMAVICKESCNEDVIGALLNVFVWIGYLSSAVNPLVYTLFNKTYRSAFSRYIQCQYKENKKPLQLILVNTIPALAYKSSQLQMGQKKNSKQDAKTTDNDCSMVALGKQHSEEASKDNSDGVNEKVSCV
Protocol: (§1) The effect of the compounds of the present invention on the neurochemical steady state was determined by in vitro investigations such as a radionuclide-marked radioligand binding assay for 5-HT2A (Bonhaus D. W. Br. J. Pharmacol. 1995, 115:622; Saucier C. J. Neurochem. 1997, 68:1998) and 5-HT2C receptors (Wolf W. A. J. Neurochem. 1997, 69:1449), in vitro binding assay for the σ1 receptor (Thomson W. and Donn R. Arthritis Res. 2002, 4: 302-306) and by in vivo investigations in a tail suspension test (Vogel H. G. and Vogel W. H. Drug Discovery and Evaluation Pharmacological Assays, Springer 1997, 304), in amphetamine-induced hyperlocomotion in mice (Millan M. J. et al, 1998 J. Pharmacol. Exp. Ther. 287: 167-186), in a forced swim test in mice (Porsolt R. D. et al. Arch. Int. Pharmacodyn. 1977, 229:327-336), in meta-chlorophenyl piperazine (m-CPP) test on rats (Drug Dev. Res. 1989, 18:119-144), and in apomorphine, tryptamine, norepinephrine (ATN) test in rats (Arch. Int. Pharmacodyn. 1977, 227:238-253).
(§2) A small concentration of a radioligand having a great affinity for binding to a receptor was incubated with a tissue sample enriched with a certain receptor (1-5 mg of tissue) in a buffered medium (0.2-5 mL). Recombinant human HT2A and HT2C receptors were expressed in CHO-K1 or COS-7 cells and were also used for competitive binding. During incubation the radioligand bound to the receptor. When a binding balance was achieved, the receptors to which the radioligand was bound were separated from those to which said ligand was not bound, and the radioactivity of the receptor/radioligand complex was measured. The interaction of the tested compounds with receptors was tested in competitive binding experiments. Various concentrations of tested compounds were added to the incubation mixture containing a prepared tissue enriched with corresponding receptors and the radioligand. The radioligand binding was inhibited by the test compounds proportionally to the affinity of a certain compound for the receptor and to the concentration of the compound.
The radioligand used for the determination of binding to 5-HT2A receptor was [^3H]-ketanserin and the tissue used was human cortex or recombinant 5-HT2A receptor expressed in CHO-K1 cells.

5-HT2C receptor = target: T2, 5-HT2C receptor (Homo sapiens, UniProt P28335); assay: radioligand binding assay for 5-HT2C receptor ([3H]-mesulergine); settings: choroid plexus or recombinant 5-HT2C receptor expressed in CHO-K1 cells; for pIC50: read-out: binding affinity to 5-HT2C serotonin receptor expressed as IC50 value; for pKi: read-out: binding affinity to 5-HT2C serotonin receptor, Ki value
T2 construct: expressed in transfected cells; alternatively choroid plexus tissue
T2 sequence (P28335 33-458): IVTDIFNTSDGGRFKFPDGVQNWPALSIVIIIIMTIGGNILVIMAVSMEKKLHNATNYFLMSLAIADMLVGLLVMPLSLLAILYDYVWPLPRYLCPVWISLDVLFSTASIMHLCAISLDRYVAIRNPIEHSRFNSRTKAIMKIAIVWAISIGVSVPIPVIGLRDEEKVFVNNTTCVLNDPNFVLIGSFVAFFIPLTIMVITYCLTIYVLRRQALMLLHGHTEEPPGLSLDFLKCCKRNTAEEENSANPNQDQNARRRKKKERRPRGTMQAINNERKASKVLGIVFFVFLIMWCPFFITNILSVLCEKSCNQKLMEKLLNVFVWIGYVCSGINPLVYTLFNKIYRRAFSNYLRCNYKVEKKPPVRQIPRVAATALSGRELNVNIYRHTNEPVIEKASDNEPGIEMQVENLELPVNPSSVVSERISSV
Protocol: as §1, §2
The radioligand used for the determination of binding to 5-HT2C receptor was [^3H]-mesulergine and the tissue used was choroid plexus or recombinant 5-HT2C receptor expressed in CHO-K1 cells.

Row | pIC50 (5-HT2A receptor) | pKi (5-HT2A receptor) | pIC50 (5-HT2C receptor) | pKi (5-HT2C receptor) | Structure (SMILES)
1 | > 6.70 | > 7.00 | > 6.70 | > 7.00 | CN(C)CCCOCc1c2c(nn1CCc1ccccc1)-c1ccccc1Sc1ccccc1-2 [dimethyl-[3-(2-phenethyl-2H-8-thia-1,2-diaza-dibenzo[e,h]azulen-3-ylmethoxy)-propyl]-amine]
2 | > 6.70 | > 7.00 | > 6.70 | > 7.00 | CN(C)CCOCc1n[nH]c2c1-c1ccccc1Oc1ccc(Cl)cc1-2 [[2-(11-chloro-1H-8-oxa-1,2-diaza-dibenzo[e,h]azulen-3-ylmethoxy)-ethyl]-dimethyl-amine]
3 | > 6.70 | > 7.00 | > 6.70 | > 7.00 | CN(C)CCCOCc1n[nH]c2c1-c1ccccc1Sc1ccccc1-2 [dimethyl-[3-(11H-8-thia-1,2-diaza-dibenzo[e,h]azulen-3-ylmethoxy)-propyl]-amine]
